Results on one compound are retold here after patent US20080182978A1, “ANTI-NGF ANTIBODIES AND METHODS USING SAME” (RINAT NEUROSCIENCE CORP, priority 2002, published 2008).

This test has as its system complete Freund's adjuvant (CFA)-induced chronic arthritis. Briefly: CFA-induced chronic arthritis in rats, vocalization test (Example 7). It counts as in vivo, rat. An excerpt: The analgesic effects of anti-NGF antibody, 911 (see Hongo et al., Hybridoma 19(3):215-227 (2000)) in complete Freund's adjuvant (CFA)-induced chronic arthritis in rats were investigated using the vocalization test, in comparison with indomethacine used as reference substance.
Fifty (50) male Lewis rats (LEWIS LEW/Crl Ico) (Charles River Belgium) weighing 150 g to 220 g at the beginning of the experimental phase were included in this study. […]
On day 0 (D0), arthritis was induced in rats by intradermal injection into the tail of 0.05 ml of a Mycobacterium butyricum (Difco, USA) suspension in mineral oil (10 mg/ml). On day 14 (D14), arthritic rats were included in the study according to their ability to vocalize upon gentle flexion of the hindpaw and by their arthritis index, evaluated using an inflammation score for each hind and forepaw (see Kuzuna et al., Chem. Pharm. Bull. (Tokyo) 23:1184-1191 (1975); Pearson et al., Arthritis Rheum. 2:440-459 (1959)). Animals were scored based on the following criteria: Score 0: normal aspect; Score 1: erythema; Score 2: erythema with slight edema; Score 3: strong inflammation without ankylosis; Score 4: ankylosis. […]
Four groups of 10 rats each were included in the study. […] On day 18 (D18), the nociceptive intensity was evaluated by gentle flexion of the hindpaw and the intensity of the level of vocalization was recorded for each animal. […]

Consider `COc1ccc2c(c1)c(CC(=O)O)c(C)n2C(=O)c1ccc(Cl)cc1` [Indomethacin, reference compound], for which the Nociceptive intensity (10 mg/kg orally at D18, measured one hour after dosing) stood at 145.8 ± 29.9 mV. The “% variation of nociceptive intensity vs vehicle-treated group” value (10 mg/kg orally at D18, one hour after dosing) is listed as −85%.
